Experimental findings from paper PMC8617031, “Development of a BCL-xL and BCL-2 dual degrader with improved anti-leukemic activity,” (Nature Communications, 2021) are described below.

Several values for one entry are separate records, joined by “and”; a condition that tells them apart may be missing. Equal values may be shown once.

In assay [1] the target is T1, BCL-xL/PROTAC/VHL-ELOC-ELOB (VCB) ternary complex (Homo sapiens, UniProt P40337+Q07817).
T1 construct: pGEX-6P-1-VHL(54-213) (pDL2200) was constructed through Gibson assembly method; made in house; host or cells: bacterial culture (LB broth, IPTG induction)
T1 sequence (Q07817 1-212 limits assumed): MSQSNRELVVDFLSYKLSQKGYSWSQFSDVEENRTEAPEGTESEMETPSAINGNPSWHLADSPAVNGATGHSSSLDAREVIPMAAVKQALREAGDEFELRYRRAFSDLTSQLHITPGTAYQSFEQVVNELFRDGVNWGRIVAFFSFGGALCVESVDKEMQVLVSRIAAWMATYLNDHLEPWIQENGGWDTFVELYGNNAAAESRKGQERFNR
T1 sequence (P40337 54-213 limits assumed): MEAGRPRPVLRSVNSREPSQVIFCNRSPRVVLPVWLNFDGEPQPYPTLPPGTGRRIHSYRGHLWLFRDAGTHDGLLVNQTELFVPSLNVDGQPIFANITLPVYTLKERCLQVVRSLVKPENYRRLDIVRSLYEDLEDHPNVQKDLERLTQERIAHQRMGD
T1 sequence (Q15369 17-112 partner limits assumed): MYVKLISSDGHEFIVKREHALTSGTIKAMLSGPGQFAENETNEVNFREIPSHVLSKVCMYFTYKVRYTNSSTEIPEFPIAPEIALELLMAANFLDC
T1 sequence (Q15370 whole entry partner): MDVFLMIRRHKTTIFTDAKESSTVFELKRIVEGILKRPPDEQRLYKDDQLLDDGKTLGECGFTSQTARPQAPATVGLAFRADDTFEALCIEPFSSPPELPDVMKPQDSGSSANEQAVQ
In words: AlphaLISA ternary complex formation, cell-free, BCL-xL. The settings on record: for in vitro ternary complex formation with BCL-xL (in words): AlphaLISA, cell-free, Fig. 2c, 3e. It is filed as binding. The procedure:
AlphaLISA assay was used to evaluate the in vitro ternary complex formation between target proteins (BCL-xL or BCL-2), PROTAC and E3 ligase (VCB complex). In each well, 5 nM His-tagged BCL-xL or BCL-2 proteins and 5 nM GST-VCB complex was incubated with varying concentrations of compounds in fourfold serial dilutions, to a final volume of 40 µl in a 96-well PCR plate. After incubation at room temperature for 30 min, 5 µl alpha glutathione-donor beads (Cat. No. 6765300, PerkinElmer) were added to each well (20 µg/ml final concentration) and incubated for another 15 min. Thereafter, 5 µL 6× His-acceptor beads were added to each well (20 µg/ml final concentration) and incubated for an additional 45 min at room temperature. Thereafter, 17 µl of each sample was transferred in adjacent wells of a 384-well proxy plate, and the plate was scanned using the Alpha program on Biotek’s Synergy Neo2 multimode plate reader. The data were expressed as average AlphaLISA signal and plotted against different concentrations of compounds using GraphPad Prism 9 software.
In general terms: In Alpha technology, singlet oxygen from a donor bead excites a nearby acceptor bead.

Assay [2] has as its system BCL-xL/PROTAC/VCB ternary complex (HiBit-BCL-xL, HaloTag-VHL). Description: NanoBRET intracellular ternary complex formation in 293T cells, BCL-xL. It is filed as cell-based, human. Particulars: NanoBRET, 293T cells, 6 h. A digest of the protocol:
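293T cells were transfected with HiBit-BCL-xL or HiBit-BCL-2 plus HaloTag-VHL and incubated overnight with or without HaloTag NanoBRET 618 ligand in 4% FBS Opti-MEM. Serially diluted compounds were applied for 6 h at 37 °C. mBRET ratio from donor emission (450/50 nm) and acceptor emission (610 nm longpass) after Nano-Glo substrate.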
(Bioluminescence resonance energy transfer reports proximity on the nanometre scale.)

[3] abbreviates: compound 0.191 nM, Fig. 2c raw Alpha reads.
Where [4] appears, read: compound 0.763 nM, Fig. 2c raw Alpha reads.
Setting [5] is: compound 3.052 nM, Fig. 2c raw Alpha reads.
[6] abbreviates: compound 12.207 nM, Fig. 2c raw Alpha reads.
Where [7] appears, read: compound 48.828 nM, Fig. 2c raw Alpha reads.
[8] abbreviates: compound 195.31 nM, Fig. 2c raw Alpha reads.
The mark [9] stands for this setting: compound 781.25 nM, Fig. 2c raw Alpha reads.
[10] abbreviates: compound 3125 nM, Fig. 2c raw Alpha reads.
The mark [11] stands for this setting: compound 12500 nM, Fig. 2c raw Alpha reads.
[12] abbreviates: compound 50000 nM, Fig. 2c raw Alpha reads.
The mark [13] stands for this setting: compound 200000 nM, Fig. 2c raw Alpha reads, 2 technical replicates.
Where [14] appears, read: compound 0.19 nM, Fig. 3e raw Alpha reads.
The mark [15] stands for this setting: compound 0.76 nM, Fig. 3e raw Alpha reads.
[16] abbreviates: compound 3.05 nM, Fig. 3e raw Alpha reads.
Where [17] appears, read: compound 12.21 nM, Fig. 3e raw Alpha reads.
[18] abbreviates: compound 195.31 nM, Fig. 3e raw Alpha reads.
The mark [19] stands for this setting: compound 781.25 nM, Fig. 3e raw Alpha reads.
Setting [20] is: compound 3125 nM, Fig. 3e raw Alpha reads.
The mark [21] stands for this setting: compound 12500 nM, Fig. 3e raw Alpha reads.
The mark [22] stands for this setting: compound 50000 nM, Fig. 3e raw Alpha reads, 2 technical replicates.

Consider `Cc1ncsc1-c1ccc([C@H](C)NC(=O)[C@@H]2C[C@@H](O)CN2C(=O)[C@@H](NC(=O)CCCCCCC(=O)N2CCN(CC3(C)CCC(c4ccc(Cl)cc4)=C(CN4CCN(c5ccc(C(=O)NS(=O)(=O)c6ccc(N[C@H](CCN7CCOCC7)CSc7ccccc7)c(S(=O)(=O)C(F)(F)F)c6)cc5)CC4)C3)CC2)C(C)(C)C)cc1` (stereo partly shown) [PPC8], for which, in assay [1], the “in vitro ternary complex formation with BCL-xL (in words)” value (“in vitro ternary complex formation” for short) is on record as “stronger ternary complexes”. Further, the “AlphaLISA signal, BCL-xL/PROTAC/VCB” value in assay [1] (setting [3]) was 19077 and 19160; in assay [1] (setting [4]), 16314 and 16977; in assay [1] (setting [5]) it was 21818 and 20322; in assay [1] (setting [6]), 112726 and 99392; in assay [1] (setting [7]) it was 824374 and 896013; in assay [1] (setting [8]) it was 1441307 and 1441293. For the same molecule, the “AlphaLISA signal, BCL-xL/PROTAC/VCB” value was 1280941 and 1272724 in assay [1] (setting [9]); 836346 and 758740 in assay [1] (setting [10]); 257313 and 288328 in assay [1] (setting [11]); 78225 and 86140 in assay [1] (setting [12]); 21117 and 20625 in assay [1] (setting [13]). In addition, the “intracellular ternary complex formation with BCL-xL (in words)” value (“intracellular ternary complex formation” for short) in assay [2] is recorded as “stronger BCL-xL/PROTAC/VHL-EloC-EloB (VCB) ternary complexes”.
In the case of `Cc1ncsc1-c1ccc([C@H](C)NC(=O)[C@@H]2C[C@@H](O)CN2C(=O)[C@@H](NC(=O)CCCCC(=O)N2CCN(CC3(C)CCC(c4ccc(Cl)cc4)=C(CN4CCN(c5ccc(C(=O)NS(=O)(=O)c6ccc(N[C@H](CCN7CCOCC7)CSc7ccccc7)c(S(=O)(=O)C(F)(F)F)c6)cc5)CC4)C3)CC2)C(C)(C)C)cc1` (stereo partly shown) [PPC6], the “in vitro ternary complex formation” value in assay [1] is on record as “stronger ternary complexes”. Further, the “AlphaLISA signal, BCL-xL/PROTAC/VCB” value is 15802 and 16724 in assay [1] (setting [3]); 18968 and 16877 in assay [1] (setting [4]); 31177 and 28685 in assay [1] (setting [5]); 217997 and 245739 in assay [1] (setting [6]); 796343 and 866530 in assay [1] (setting [7]); 952961 and 938632 in assay [1] (setting [8]). Moreover, the “AlphaLISA signal, BCL-xL/PROTAC/VCB” value was 936762 and 1084189 in assay [1] (setting [9]); 603765 and 595968 in assay [1] (setting [10]); 155340 and 139952 in assay [1] (setting [11]); 73929 and 84434 in assay [1] (setting [12]); 25477 and 29119 in assay [1] (setting [13]). Moreover, the “intracellular ternary complex formation” value in assay [2] is “stronger BCL-xL/PROTAC/VHL-EloC-EloB (VCB) ternary complexes”.
On to `Cc1ncsc1-c1ccc([C@H](C)NC(=O)[C@@H]2C[C@@H](O)CN2C(=O)[C@@H](NC(=O)CCCCCCCC(=O)N2CCN(CC3(C)CCC(c4ccc(Cl)cc4)=C(CN4CCN(c5ccc(C(=O)NS(=O)(=O)c6ccc(N[C@H](CCN7CCOCC7)CSc7ccccc7)c(S(=O)(=O)C(F)(F)F)c6)cc5)CC4)C3)CC2)C(C)(C)C)cc1` (stereo partly shown) [PPC9], for which, in assay [1], the “in vitro ternary complex formation” value is listed as “much weaker ternary complexes”. The “AlphaLISA signal, BCL-xL/PROTAC/VCB” value in assay [1] (setting [3]) was 17022 and 14292; in assay [1] (setting [4]) it was 18582 and 21901; in assay [1] (setting [5]), 16005 and 18766; in assay [1] (setting [6]), 39343 and 38049; in assay [1] (setting [7]), 159552 and 171121; in assay [1] (setting [8]), 340009 and 336400. Moreover, the “AlphaLISA signal, BCL-xL/PROTAC/VCB” value in assay [1] (setting [9]) is 265891 and 255043; in assay [1] (setting [10]), 73854 and 131135; in assay [1] (setting [11]), 17390 and 24043; in assay [1] (setting [12]), 11384 and 10586; in assay [1] (setting [13]), 11935 and 10943. In addition, the “intracellular ternary complex formation” value in assay [2] is “stronger BCL-xL/PROTAC/VHL-EloC-EloB (VCB) ternary complexes”.
For the molecule `Cc1ncsc1-c1ccc([C@H](C)NC(=O)[C@@H]2C[C@@H](O)CN2C(=O)[C@@H](NC(=O)CCCCCC(=O)N2CCN(CC3(C)CCC(c4ccc(Cl)cc4)=C(CN4CCN(c5ccc(C(=O)NS(=O)(=O)c6ccc(N[C@H](CCN7CCOCC7)CSc7ccccc7)c(S(=O)(=O)C(F)(F)F)c6)cc5)CC4)C3)CC2)C(C)(C)C)cc1` (stereo partly shown) [PPC7], in assay [1], the “in vitro ternary complex formation” value is “stronger ternary complexes”. The “AlphaLISA signal, BCL-xL/PROTAC/VCB” value in assay [1] (setting [3]) was 16342 and 14008; in assay [1] (setting [4]), 13825 and 16199; in assay [1] (setting [5]), 18964 and 20836; in assay [1] (setting [6]) it was 75292 and 75299; in assay [1] (setting [7]), 594562 and 681817; in assay [1] (setting [8]), 1206651 and 1333081. For the same molecule, the “AlphaLISA signal, BCL-xL/PROTAC/VCB” value was 1103207 and 1035637 in assay [1] (setting [9]); 530944 and 584971 in assay [1] (setting [10]); 158302 and 141290 in assay [1] (setting [11]); 39339 and 47417 in assay [1] (setting [12]); 23853 and 20524 in assay [1] (setting [13]). In assay [2], the “intracellular ternary complex formation” value is “stronger BCL-xL/PROTAC/VHL-EloC-EloB (VCB) ternary complexes”.
Regarding `CC1(C)CCC(c2ccc(Cl)cc2)=C(CN2CCN(c3ccc(C(=O)NS(=O)(=O)c4ccc(N[C@H](CCN5CCOCC5)CSc5ccccc5)c(S(=O)(=O)C(F)(F)F)c4)cc3)CC2)C1` [ABT263, navitoclax], the “AlphaLISA signal, BCL-xL/PROTAC/VCB” value in assay [1] (setting [14]) was 12691 and 9324; in assay [1] (setting [15]) it was 14711 and 17995; in assay [1] (setting [16]), 28316 and 16721; in assay [1] (setting [17]), 27882 and 17689; in assay [1] (setting [18]) it was 22883 and 13939; in assay [1] (setting [19]) it was 12216 and 14015. Further, the “AlphaLISA signal, BCL-xL/PROTAC/VCB” value was 19424 and 16133 in assay [1] (setting [20]); 17056 and 15505 in assay [1] (setting [21]); 14548 and 12360 in assay [1] (setting [22]).
As to `Cc1ncsc1-c1ccc([C@H](C)NC(=O)[C@@H]2C[C@@H](O)CN2C(=O)[C@@H](NC(=O)CCCCCC(=O)N2CCN(CC[C@H](CSc3ccccc3)Nc3ccc(S(=O)(=O)NC(=O)c4ccc(N5CCN(CC6=C(c7ccc(Cl)cc7)CCC(C)(C)C6)CC5)cc4)cc3S(=O)(=O)C(F)(F)F)CC2)C(C)(C)C)cc1` [DT2216], the “AlphaLISA signal, BCL-xL/PROTAC/VCB” value in assay [1] (setting [14]) is 24660 and 20115; in assay [1] (setting [3]), 16719 and 10405; in assay [1] (setting [15]), 36507 and 38317; in assay [1] (setting [4]), 18311 and 16968; in assay [1] (setting [16]), 66449 and 60221; in assay [1] (setting [5]) it was 25910 and 22328. Further, the “AlphaLISA signal, BCL-xL/PROTAC/VCB” value was 86818 and 83277 in assay [1] (setting [6]); 409606 and 406374 in assay [1] (setting [17]); 487236 and 509576 in assay [1] (setting [7]); 1004765 and 1011127 in assay [1] (compound 48.83 nM, Fig. 3e raw Alpha reads); 1016591 and 916263 in assay [1] (setting [8]); 1443448 and 1418663 in assay [1] (setting [18]). The “AlphaLISA signal, BCL-xL/PROTAC/VCB” value in assay [1] (setting [9]) was 880317 and 910855; in assay [1] (setting [19]) it was 1065855 and 975587; in assay [1] (setting [10]), 660864 and 590073; in assay [1] (setting [20]) it was 557160 and 572089; in assay [1] (setting [11]), 241490 and 226854; in assay [1] (setting [21]) it was 200468 and 154034. Further, the “AlphaLISA signal, BCL-xL/PROTAC/VCB” value in assay [1] (setting [12]) is 34465 and 29535; in assay [1] (setting [22]), 37331 and 41699; in assay [1] (setting [13]) it was 19406 and 20996.
